These results are taken from patent publication US11980616B2, “Treating liver disease by selectively eliminating senescent cells” (Buck Institute for Research on Aging, priority 2014, dated 2024).

Experiment [1] relates to 3MR or INK-ATTAC mice exposed to cigarette smoke. Nature of the experiment: Chronic cigarette smoke exposure model (COPD). As to conditions: after 2 months of cigarette smoke exposure; vs untreated controls. The class given is in vivo, mouse. The procedure: In a second animal model for pulmonary diseases (e.g., COPD), mice were exposed to cigarette smoke. The effect of a senolytic agent on the mice exposed to smoke is assessed by senescent cell clearance, lung function, and histopathology.
Six week-old 3MR (n=35) or INK-ATTAC (n=35) mice were chronically exposed to cigarette smoke generated from a Teague TE-10 system, an automatically-controlled cigarette smoking machine that produces a combination of side-stream and mainstream cigarette smoke in a chamber, which is transported to a collecting and mixing chamber where varying amounts of air is mixed with the smoke mixture. The COPD protocol was adapted from the COPD core facility at Johns Hopkins University (at Internet site web.jhu.edu/Biswal/exposure_core/copd.html#Cigarette_Smoke) (Rangasamy et al., 2004, J. Clin. Invest. 114:1248-1259; Yao et al., 2012, J. Clin. Invest. 122:2032-2045). Mice received a total of 6 hours of cigarette smoke exposure per day, 5 days a week for 6 months. Each lighted cigarette (3R4F research cigarettes containing 10.9 mg of total particulate matter (TPM), 9.4 mg of tar, and 0.726 mg of nicotine, and 11.9 mg carbon monoxide per cigarette [University of Kentucky, Lexington, KY]) was puffed for 2 seconds and once every minute for a total of 8 puffs, with the flow rate of 1.05 L/min, to provide a standard puff of 35 cm^3. The smoke machine was adjusted to produce a mixture of side stream smoke (89%) and mainstream smoke (11%) by smoldering 2 cigarettes at one time. The smoke chamber atmosphere was monitored for total suspended particulates (80-120 mg/m^3) and carbon monoxide (350 ppm). Beginning at day 7, (10) INK-ATTAC and (10) 3MR mice were treated with AP20187 (3× per week) or gancyclovir (5 consecutive days of treatment followed by 16 days off drug, repeated until the end of the experiment), respectively. An equal number of mice received the corresponding vehicle. The remaining […] (15 INK-ATTAC and 15 3MR) were evenly split with 5 of each genetically modified strain placed into three different treatment groups. One group (n=10) received Nutlin-3A (25 mg/kg dissolved in 10% DMSO/3% Tween-20 in PBS, treated 14 days consecutively followed by 14 days off drug, repeated until the end of the experiment). […]
After two months of cigarette smoke exposure, lung function was assessed by monitoring oxygen saturation using the MouseSTAT PhysioSuite pulse oximeter (Kent Scientific). […] Mice were monitored for 30 seconds and the average peripheral capillary oxygen saturation (SpO2) measurement over this duration was calculated.

For experiment [2], the system named is 3MR mice exposed to bleomycin. Nature of the experiment: Bleomycin induced lung injury model. Format: in vivo, mouse. The method, then:
One animal model study assessed the effect of clearance of senescence cells in the transgenic mouse strain 3MR that has bleomycin induced lung injury. In the bleomycin injury model for idiopathic pulmonary fibrosis, mice develop lung fibrosis within 7-14 days after bleomycin treatment (see, e.g., Limjunyawong et al., 2014, Physiological Reports 2:e00249; Daniels et al., 2004, J. Clin. Invest. 114:1308-1316). Bleomycin was administered to anesthetized 6-8 week old 3MR mice by intratracheal aspiration (2.5 U/kg of bleomycin in 50 μl PBS) using a microsprayer syringe (Penn-Century, Inc.) as described in Daniels et al. (2004, J. Clin. Invest. 114:1308-1316). Control mice were administered saline. The day following bleomycin treatment, ganciclovir (GCV) (25 mg/kg in PBS) was administered. 3MR mice were treated via intraperitoneal injection with ganciclovir for 5 consecutive days, followed by 5 days of rest, followed by a second treatment cycle of 5 consecutive days. Untreated mice received an equal volume of vehicle. At 7, 14, and 21 days post-bleomycin treatment, lung function was assessed by monitoring oxygen saturation using the MouseSTAT PhysioSuite pulse oximeter (Kent Scientific). Animals were anesthetized with isoflurane (1.5%) and a toe clip was applied. Mice were monitored for 30 seconds and the average peripheral capillary oxygen saturation (SpO2) measurement over this duration was calculated. […] At 21 days post-bleomycin treatment, airway hyper-reactivity (AHR) of mice was examined. AHR of mice was measured by methacholine challenge while other parameters of lung function (airway mechanics, lung volume and lung compliance) were determined using a SCIREQ flexiVent ventilator. While under ketamine/xylazine anesthesia and subjected to cannulation of the trachea via a tracheostomy (19Fr blunt Luer cannula), airway resistance (elastance) and compliance of mice were assessed at baseline and in response to increasing concentrations of methacholine (0 to 50 mg/ml in PBS) delivered via nebulization (AeroNeb) as described in Aravamudan et al. (Am. J. Physiol. Lung Cell. Mol. Physiol. (2012) 303:L669-L681). Animals were maintained at 37° C., and while under muscle paralysis (pancuronium); airway function was measured by using the FlexiVent™ ventilator and lung mechanics system (SCIREQ, Montreal, Quebec, Canada), which was housed on Stabile 8. […] As shown in FIGS. 60B-C, bleomycin administration reduced static compliance and (dynamic) compliance in vehicle treated mice. […] Mice were euthanized by i.p injection of pentobarbital. Bronchoalveolar lavage (BAL) fluids and lungs is obtained and analyzed. Hydroxyproline content of lungs is measured as described in Christensen et al. (1999, Am. J. Pathol. 155:1773-1779), and quantitative histopathology is performed. RNA is extracted from lung tissue to measure senescence cell markers by qRT-PCR in treated and control mice.

The mark [3] stands for this setting: bleomycin exposed mouse, not statistically significant, group size too small.
[4] abbreviates: 25 mg/kg i.p., 21 days post-bleomycin.

Turning to `COc1ccc(C2=N[C@@H](c3ccc(Cl)cc3)[C@@H](c3ccc(Cl)cc3)N2C(=O)N2CCNC(=O)C2)c(OC(C)C)c1` [Nutlin-3a], the SpO2 levels entry in experiment [1] is “statistically significant increases”. For the same molecule, in experiment [2] (setting [3]), the Lung compliance entry is reported as “increased lung compliance” and the Lung elastance result was “reduced lung elastance”.

For `Nc1nc(O)c2ncn(COC(CO)CO)c2n1` [ganciclovir], the SpO2 levels result in experiment [1] was “statistically significant increases”. Besides, the “Peripheral capillary oxygen saturation (SpO2)” value in experiment [2] (25 mg/kg i.p., two cycles of 5 days, 7, 14, 21 days post-bleomycin) is listed as “higher SpO2 levels”. Besides, in experiment [2] (setting [4]), the Lung elastance result is “reduced lung elastance”; the “Static compliance and (dynamic) compliance” value is given as “improved compliance values significantly”.
